Reference: US11673865B2, “Cyclooctynes for click chemistry” (Massachusetts Institute of Technology, priority 2021, dated 2023)
Each block holds one compound with its values, some of them ahead of it.

Experiments:
Format in all cases: physicochemical
[1] = 1,3-dipolar cycloaddition kinetics by HPLC; settings: with N-benzylazidoacetamide; CH2Cl2 (FIG. 1)
Procedure: (§1) The rates of reaction for the 1,3-dipolar cycloaddition of dipoles N-benzylazidoacetamide and N-benzyldiazoacetamide with compound 3 in both aprotic (CH2Cl2) and protic solvents (MeOH and PBS containing 2% v/v DMSO) were measured. The depletion of compound 3by using HPLC and second-order rate constants were calculated from the slope of a plot of [compound 3]^−1 versus time. As a benchmark, the rate of the reaction of DIBO with each dipole was also measured.
(§2) Kinetics General Method A. Stock solutions at the specified concentrations in the specified solvents were prepared for each dipole and dipolarophile. Aliquots (0.5 mL) of dipole and dipolarophile were mixed, and reactions were monitored by HPLC with aliquots injected at the timepoints shown in the kinetic traces below. Each reaction was carried out in triplicate. The concentration of remaining dipolarophile was obtained from its corresponding peak in the chromatogram monitored at 280 nm. Second-order rate constants were calculated from the slope of the plot of [dipolarophile]^−1 versus time.
Reaction of N-benzylazidoacetamide with DIBO in CH2Cl2. Kinetics General Method A was followed using stock solutions at 2 mM and resulting in final reaction concentrations of 1 mM N-benzylazidoacetamide and 1 mM DIBO.
Reaction of N-benzylazidoacetamide with compound 3 in CH2Cl2. […]

[2] = 1,3-dipolar cycloaddition kinetics by HPLC
Procedure: as §1, §2
Reaction of N-benzyldiazoacetamide with DIBO in CH2Cl2. Kinetics General Method A was followed using stock solutions at 2 mM and resulting in final reaction concentrations of 1 mM N-benzyldiazoacetamide and 1 mM DIBO.
Reaction of N-benzyldiazoacetamide with compound 3 in CH2Cl2. […]

[3] = 1,3-dipolar cycloaddition kinetics by HPLC; settings: CH2Cl2 (FIG. 1)
Procedure: To assess the effect of the putative hydrogen bond, the reactivity of compound 3 and DIBO with ethyl diazoacetate, which lacks a hydrogen bond donor, was tested. The rate constant for the reaction of compound 3 with ethyl diazoacetate was nearly 200-fold lower than that with N-benzylazidoacetamide. This decrease is substantially greater than the 4-fold decrease in rate constant for the reaction of these same dipoles with DIBO (FIG. 1).
as §2
Reaction of ethyl diazoacetate with compound 3 in CH2Cl2. Kinetics General Method A was followed using stock solutions at 400 μM and resulting in final reaction concentrations of 200 μM ethyl diazoacetate and 200 μM compound 3.

[4] = 1,3-dipolar cycloaddition kinetics by HPLC; settings: CH2Cl2, 26° C., triplicate
Procedure: as §2
Reaction of 2-Azido-N-methyl-N-(phenylmethyl)acetamide with compound 3 in CH2Cl2. Kinetics General Method A was followed using stock solutions at 80 μM and resulting in final reaction concentrations of 40 μM 2-Azido-N-methyl-N-(phenylmethyl)acetamide and 40 μM compound 3.

[5] = 1,3-dipolar cycloaddition kinetics by HPLC; settings: CH2Cl2, 26° C., triplicate; remark: listed apart in the source
Procedure: as §2
Reaction of compound 9 with compound 3 in CH2Cl2. Kinetics General Method A was followed using stock solutions at 80 μM and resulting in final reaction concentrations of 40 μM 2-Diazo-N-methyl-N-(phenylmethyl)acetamide and 40 μM compound 3.

[6] = Cyclooctyne stability in the presence of glutathione; settings: 25 μM
Procedure: The stability of ABC in the presence of biological nucleophiles was determined using a biomimetic concentration of glutathione, which contains amino, carboxyl, and sulfhydryl groups. DIBAC was used as a comparator.
A solution of compound 3 (25 μM) or DIBAC (25 μM) was prepared in phosphate-buffered saline containing reduced glutathione (1.0 mM), oxidized glutathione (0.2 mM), and DMSO (2% v/v). The solutions were incubated at 37° C. (FIG. 6), and HPLC analyses were carried out every hour to determine the remaining concentration of dipolarophile. Subsequently, plots of In(concentration) versus time were prepared to calculate values of kobs for the degradation. These values were divided by the concentration of reduced glutathione to obtain second-order rate constants for the degradation with respect to reduced glutathione.

- second-order rate constant of degradation with respect to reduced glutathione [6]: 0.10 M⁻¹ s⁻¹
Compound: Clc1ccc2c(c1)CCc1cccnc1C#C2 [compound 3, 2-Azabenzo-8-chlorobenzocyclooctyne]
- rate increase relative to DIBO [1]: 30 fold
- rate increase of N-benzyl diazoacetamide over N-benzyl azidoacetamide ([2]; diazoacetamide over azidoacetamide): ~20 fold
- rate increase relative to DIBO ([2]; with N-benzyl diazoacetamide, CH2Cl2 (FIG. 1)): 1,200 fold
- decrease in rate constant with ethyl diazoacetate relative to N-benzylazidoacetamide [3]: ~200 fold
- second-order rate constant k [4]: 1.0 M⁻¹ s⁻¹
- second-order rate constant k [5]: 0.75 M⁻¹ s⁻¹

Compound: dibenzoazacyclooctyne [DIBAC, reference compound]
- second-order rate constant of degradation with respect to reduced glutathione ([6]; 1 mM reduced and 0.2 mM oxidized glutathione in PBS containing DMSO (2% v/v), 37° C., HPLC): 0.05 M⁻¹ s⁻¹
